# Measured values as given in patent US20140135293A1, “ALLENE DERIVATIVES AS SPHINGOSINE 1-PHOSPHATE (S1P) RECEPTOR MODULATORS” (ALLERGAN, INC., priority 2012, published 2014).
# pEC50: −log10 of the molar value.
# Target: T1, human S1P1 receptor (Homo sapiens, UniProt P21453)
# T1 construct: expressed in transfected cells; membranes used
# Test: GTP y35S binding assay for S1P1 activity
# Assay type: biochemical
# Conditions: membranes of cells stably expressing the S1P1 receptor, agonist potency
# Experimental: Compounds were synthesized and tested for S1P1 activity using the GTP y^35S binding assay. These compounds may be assessed for their ability to activate or block activation of the human S1P1 receptor in cells stably expressing the S1P1 receptor.
# GTP y^35S binding was measured in the medium containing (mM) HEPES 25, pH 7.4, MgCl2 10, NaCl 100, dithitothreitol 0.5, digitonin 0.003%, 0.2 nM GTP y^35S, and 5 μg membrane protein in a volume of 150 μl. Test compounds were included in the concentration range from 0.08 to 5,000 nM unless indicated otherwise. Membranes were incubated with 100 μM […] for 30 min, and subsequently with 10 μM GDP for 10 min on ice. Drug solutions and membrane were mixed, and then reactions were initiated by adding GTP y^35S and continued for 30 min at 25° C. Reaction mixtures were filtered over Whatman GF/B filters under vacuum, and washed three times with 3 mL of ice-cold buffer (HEPES 25, pH7.4, MgCl2 10 and NaCl 100). Filters were dried and mixed with scintillant, and counted for ^35S activity using a ([…]. Agonist-induced GTP y^35S binding was obtained by subtracting that in the absence of agonist. Binding data were analyzed using a non-linear regression method. In case of antagonist assay, the reaction mixture contained 10 nM […] in the presence of test antagonist at concentrations ranging from 0.08 to 5000 nM.
# T1 sequence (P21453 whole entry): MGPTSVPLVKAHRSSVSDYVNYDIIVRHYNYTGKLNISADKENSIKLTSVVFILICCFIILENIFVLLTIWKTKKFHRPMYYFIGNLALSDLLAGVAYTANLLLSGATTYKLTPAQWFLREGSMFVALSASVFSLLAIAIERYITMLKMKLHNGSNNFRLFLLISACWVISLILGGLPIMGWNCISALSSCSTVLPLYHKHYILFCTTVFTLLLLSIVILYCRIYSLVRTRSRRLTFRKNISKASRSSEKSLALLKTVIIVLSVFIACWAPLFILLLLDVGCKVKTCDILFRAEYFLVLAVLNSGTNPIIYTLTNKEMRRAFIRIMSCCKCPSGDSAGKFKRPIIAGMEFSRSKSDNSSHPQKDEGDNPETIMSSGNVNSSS
row,Structure (SMILES),pEC50
1,"CCc1cc(C=C=C(Cc2ccc(C)c(C)c2)c2cc(F)cc(F)c2)ccc1CNCCCP(=O)(O)O [Compound 3, [3-({4-[3-(3,5-Difluorophenyl)-4-(3,4-dimethylphenyl)buta-1,2-dien-1-yl]-2-ethylbenzyl}amino)propyl]phosphonic acid]",5.78
2,"Cc1ccc(CC(=C=Cc2ccc(CNCCCP(=O)(O)O)cc2-c2ccco2)c2cc(F)cc(F)c2)cc1C [Compound 2, [3-({4-[3-(3,5-Difluorophenyl)-4-(3,4-dimethylphenyl)buta-1,2-dien-1-yl]-3-(2-furyl)benzyl}amino)propyl]phosphonic acid]",7.23
3,"Cc1ccc(CC(=C=Cc2ccc(CNCCCP(=O)(O)O)cc2-c2cccs2)c2cc(F)cc(F)c2)cc1C [Compound 1, [3-({4-[3-(3,5-difluorophenyl)-4-(3,4-dimethylphenyl)buta-1,2-dien-1-yl]-3-(2-thienyl)benzyl}amino)propyl]phosphonic acid]",7.23
